Test results reported in PMC11292009, “Mapping protein binding sites by photoreactive fragment pharmacophores” (Communications Chemistry, 2024).

Tested on: T1, Kras G12D protein / SOS1 exchange domain
T1 construct: Cytoskeleton, Inc. (SOS1 exchange domain only) GE02
Assay: Kras-SOS exchange assay (MANT-GDP)
Type: biochemical
Conditions: for Relative fluorescence intensity: PhP072 500 uM, no irradiation
Experimental: MANT-GDP loading assay: Kras^G12D protein was first buffer exchanged into low magnesium buffer (20 mM HEPES-NaOH (pH 7.5), 50 mM NaCl, 0.5 mM MgCl2) using a NAP5 column (catalog no.: 17-0583-1, Cytiva). The proteins were then incubated with 20-fold molar excess of N-methylanthraniloyl (MANT)-GDP (catalog no.: 69244, Sigma-Aldrich) in loading buffer (50 mM NaCl, 20 mM HEPES-NaOH [pH 7.5], 0.5 mM MgCl2, 10 mM EDTA, and 1 mM Dithiothreitol (DTT)) in a total volume of 200 μL at 20 °C for 90 min. The reaction was stopped by adding MgCl2 to a final concentration of 10 mM, then incubated at 20 °C for 30 min. The unbound MANT-GDP was removed using the NAP-5 column equilibrated with nucleotide exchange buffer (40 mM HEPES-NaOH (pH 7.5), 50 mM NaCl, 10 mM MgCl2, 2 mM DTT).
MANT-GDP exchange assay: First the MANT-GDP bound Kras G12D protein (in a final 1 μM molar concentration) was preincubated with the inhibitor molecules for 60 min. After the preincubation the samples were exposed to UV light for 10 min with a wavelength of 366 nm. The UV-treated MANT-GDP Kras-inhibitor mix was loaded into a black 384 well microplate. The nucleotide exchange reaction was initiated by adding 100 fold molar excess of GppNHp (catalog no.: G0635, Sigma-Aldrich), a non-hydrolyzable GTP analog and the SOS1 exchange domain (catalog no.: GE02, Cytoskeleton, Inc.) protein in 0.5 μM final concentration. The change in fluorescence intensity was measured every 30 s in room temperature for 60 min on an EnSpire plate reader (PerkinElmer, Inc.). The measured fluorescence values were fitted to a single exponential function by using GraphPad Prism 8 software.

Cc1ncc(CO)c(CNC(=O)CCC2(C)N=N2)c1O [PhP072, Cc1ncc(CO)c(c1O)CNC(=O)CCC2(C)N=N2]
Relative fluorescence intensity (0 sec): 1 | Relative fluorescence intensity (30 sec): 1.013 | Relative fluorescence intensity (60 sec): 0.9959 | Relative fluorescence intensity (90 sec): 0.9972 | Relative fluorescence intensity (120 sec): 0.9718 | Relative fluorescence intensity (210 sec): 0.9336 | Relative fluorescence intensity (240 sec): 0.9413 | Relative fluorescence intensity (270 sec): 0.9207 | Relative fluorescence intensity (300 sec): 0.9231 | Relative fluorescence intensity (330 sec): 0.889 | Relative fluorescence intensity (360 sec): 0.9144 | Relative fluorescence intensity (390 sec): 0.8755 | Relative fluorescence intensity (420 sec): 0.8829 | Relative fluorescence intensity (450 sec): 0.8817 | Relative fluorescence intensity (480 sec): 0.8573 | Relative fluorescence intensity (510 sec): 0.8562 | Relative fluorescence intensity (540 sec): 0.8393 | Relative fluorescence intensity (570 sec): 0.8479 | Relative fluorescence intensity (600 sec): 0.8268 | Relative fluorescence intensity (630 sec): 0.8298 | Relative fluorescence intensity (660 sec): 0.82 | Relative fluorescence intensity (690 sec): 0.8367 | Relative fluorescence intensity (720 sec): 0.8123 | Relative fluorescence intensity (750 sec): 0.8188 | Relative fluorescence intensity (780 sec): 0.7895 | Relative fluorescence intensity (810 sec): 0.8173 | Relative fluorescence intensity (840 sec): 0.8044 | Relative fluorescence intensity (870 sec): 0.8078 | Relative fluorescence intensity (900 sec): 0.796 | Relative fluorescence intensity (930 sec): 0.7898 | Relative fluorescence intensity (960 sec): 0.7738 | Relative fluorescence intensity (990 sec): 0.7911 | Relative fluorescence intensity (1020 sec): 0.7808 | Relative fluorescence intensity (1050 sec): 0.7917 | Relative fluorescence intensity (1080 sec): 0.7685 | Relative fluorescence intensity (1110 sec): 0.7829 | Relative fluorescence intensity (1140 sec): 0.763 | Relative fluorescence intensity (1170 sec): 0.7869 | Relative fluorescence intensity (1200 sec): 0.7802 | Relative fluorescence intensity (1230 sec): 0.7626 | Relative fluorescence intensity (1260 sec): 0.7487 | Relative fluorescence intensity (1290 sec): 0.7649 | Relative fluorescence intensity (1320 sec): 0.7515 | Relative fluorescence intensity (1350 sec): 0.7769 | Relative fluorescence intensity (1380 sec): 0.7498 | Relative fluorescence intensity (1410 sec): 0.7689 | Relative fluorescence intensity (1440 sec): 0.7375 | Relative fluorescence intensity (1470 sec): 0.7324 | Relative fluorescence intensity (1500 sec): 0.7377 | Relative fluorescence intensity (1530 sec): 0.7512 | Relative fluorescence intensity (1560 sec): 0.7561 | Relative fluorescence intensity (1590 sec): 0.7642 | Relative fluorescence intensity (1620 sec): 0.7532 | Relative fluorescence intensity (1650 sec): 0.7322 | Relative fluorescence intensity (1680 sec): 0.7337 | Relative fluorescence intensity (1710 sec): 0.7447 | Relative fluorescence intensity (1740 sec): 0.7262 | Relative fluorescence intensity (1770 sec): 0.7004 | Relative fluorescence intensity (1800 sec): 0.7223 | Relative fluorescence intensity (1830 sec): 0.7275 | Relative fluorescence intensity (1860 sec): 0.7142 | Relative fluorescence intensity (1890 sec): 0.7142 | Relative fluorescence intensity (1920 sec): 0.7251 | Relative fluorescence intensity (1950 sec): 0.7143 | Relative fluorescence intensity (1980 sec): 0.7167 | Relative fluorescence intensity (2010 sec): 0.7199 | Relative fluorescence intensity (2040 sec): 0.7182 | Relative fluorescence intensity (2070 sec): 0.7197 | Relative fluorescence intensity (2100 sec): 0.7234 | Relative fluorescence intensity (2130 sec): 0.7107 | Relative fluorescence intensity (2160 sec): 0.709 | Relative fluorescence intensity (2190 sec): 0.6857 | Relative fluorescence intensity (2220 sec): 0.7212 | Relative fluorescence intensity (2250 sec): 0.7309 | Relative fluorescence intensity (2280 sec): 0.698 | Relative fluorescence intensity (2310 sec): 0.6941 | Relative fluorescence intensity (2340 sec): 0.715 | Relative fluorescence intensity (2370 sec): 0.7148 | Relative fluorescence intensity (2400 sec): 0.6907 | Relative fluorescence intensity (2430 sec): 0.6865 | Relative fluorescence intensity (2460 sec): 0.6802 | Relative fluorescence intensity (2490 sec): 0.7113 | Relative fluorescence intensity (2520 sec): 0.7022 | Relative fluorescence intensity (2550 sec): 0.6719 | Relative fluorescence intensity (2580 sec): 0.6958 | Relative fluorescence intensity (2910 sec): 0.6843 | Relative fluorescence intensity (2940 sec): 0.6708 | Relative fluorescence intensity (2970 sec): 0.6872 | Relative fluorescence intensity (3000 sec): 0.6826 | Relative fluorescence intensity (3030 sec): 0.6877 | Relative fluorescence intensity (3060 sec): 0.6798 | Relative fluorescence intensity (3090 sec): 0.6889 | Relative fluorescence intensity (3120 sec): 0.6845 | Relative fluorescence intensity (3150 sec): 0.6654 | Relative fluorescence intensity (3180 sec): 0.6759 | Relative fluorescence intensity (3210 sec): 0.6861 | Relative fluorescence intensity (3240 sec): 0.6538 | Relative fluorescence intensity (3270 sec): 0.6954 | Relative fluorescence intensity (3300 sec): 0.6785 | Relative fluorescence intensity (3330 sec): 0.6776 | normalized signal, Kras-SOS exchange (Figure 4c PhP072 irradiation) (Php072 500 uM, irradiation, time 0 sec): 1
